Test results reported in patent US10201523B2, “Use of wilforlide A for overcoming chemotherapy resistance” (WESTERN UNIVERSITY OF HEALTH SCIENCES, priority 2013, dated 2019).
“And” between values parts separate entries of the source, which are not always exact repeats. Equal values may be shown once.

System: Bt474-TxR
Experiment: SRB cell viability assay, lapatinib with/without wilforlide A pretreatment
Assay type: cell-based
[1] = Lapatinib 0.067 μM, 72 h, no wilforlide A pretreatment, Table 25
[2] = Lapatinib 0.2 μM, 72 h, pretreated with 25 μg/ml wilforlide A for 2 h, Table 26
[3] = Lapatinib 0.67 μM, 72 h, no wilforlide A pretreatment, Table 27
[4] = Lapatinib 0.67 μM, 72 h, pretreated with 25 μg/ml wilforlide A for 2 h, Table 26
[5] = Lapatinib 2.0 μM, 72 h, no wilforlide A pretreatment, Table 25
[6] = Lapatinib 2.0 μM, 72 h, no wilforlide A pretreatment, Table 27
[7] = Lapatinib 2.0 μM, 72 h, pretreated with 25 μg/ml wilforlide A for 2 h, Table 26
[8] = Lapatinib 6.7 μM, 72 h, no wilforlide A pretreatment, Table 25
[9] = Lapatinib 6.7 μM, 72 h, no wilforlide A pretreatment, Table 27
[10] = Lapatinib 6.7 μM, 72 h, pretreated with 25 μg/ml wilforlide A for 2 h, Table 26
[11] = Lapatinib 20 μM, 72 h, no wilforlide A pretreatment, Table 25
[12] = Lapatinib 20 μM, 72 h, no wilforlide A pretreatment, Table 27
[13] = Lapatinib 20 μM, 72 h, pretreated with 25 μg/ml wilforlide A for 2 h, Table 26

For `CS(=O)(=O)CCNCc1ccc(-c2ccc3ncnc(Nc4ccc(OCc5cccc(F)c5)c(Cl)c4)c3c2)o1` [lapatinib], the “A at 565 nm” value (Bt474-TxR, wilforlide A 2.5 μg/ml pre-Tx, lapatinib 0.67 μM 72 h, background = 0.045) was 0.898 and 0.975, the “mean A” value (Bt474-TxR, wilforlide A 2.5 μg/ml pre-Tx, lapatinib 2.0 μM 72 h) was 0.849 and the “A at 565 nm” value (Bt474-TxR, wilforlide A 2.5 μg/ml pre-Tx, lapatinib 2.0 μM 72 h, background = 0.045) was 0.895 and 0.791 and 0.861. The “mean A” value (Bt474-TxR, wilforlide A 2.5 μg/ml pre-Tx, lapatinib 6.7 μM 72 h) was 0.884, the “A at 565 nm” value (Bt474-TxR, wilforlide A 2.5 μg/ml pre-Tx, lapatinib 6.7 μM 72 h, background = 0.045) was 0.947 and 0.814 and 0.893 and the “mean A” value (Bt474-TxR, wilforlide A 2.5 μg/ml pre-Tx, lapatinib 20 μM 72 h) was 0.768. For the same molecule, the “A at 565 nm” value (Bt474-TxR, wilforlide A 2.5 μg/ml pre-Tx, lapatinib 20 μM 72 h, background = 0.045) was 0.798 and 0.689 and 0.817, the viability at 0.001 µM (Lapatinib 0.001 μM, 72 h, no wilforlide A pretreatment, Table 25) was 100% and the “A at 565 nm” value (Lapatinib 0.001 μM, 72 h, no wilforlide A pretreatment, Table 25, background = 0.045) was 1.272 and 1.341. For the same molecule, the viability at 0.001 µM (Lapatinib 0.001 μM, 72 h, no wilforlide A pretreatment, Table 27) was 100%, the viability at 0.001 µM (Lapatinib 0.001 μM, 72 h, pretreated with 25 μg/ml wilforlide A for 2 h, Table 26) was 100% and the “mean A” value (Lapatinib 0.01 μM, 72 h, no wilforlide A pretreatment, Table 25) was 1.338. For the same molecule, the “A at 565 nm” value (Lapatinib 0.01 μM, 72 h, no wilforlide A pretreatment, Table 25, background = 0.045) was 1.352 and 1.344 and 1.318, the viability at 0.01 µM (Lapatinib 0.01 μM, 72 h, no wilforlide A pretreatment, Table 27) was 99.5% and the viability at 0.01 µM (Lapatinib 0.01 μM, 72 h, pretreated with 25 μg/ml wilforlide A for 2 h, Table 26) was 96.2%. The “mean A” value [1] was 1.304, the viability at 0.067 µM [1] was 105% and the “A at 565 nm” value (Lapatinib 0.067 μM, 72 h, no wilforlide A pretreatment, Table 25, background = 0.045) was 1.320 and 1.343. It also gave a viability at 0.067 µM (Lapatinib 0.067 μM, 72 h, no wilforlide A pretreatment, Table 27) of 98.7%, a viability at 0.067 µM (Lapatinib 0.067 μM, 72 h, pretreated with 25 μg/ml wilforlide A for 2 h, Table 26) of 94.6% and a viability at 0.2 µM (Lapatinib 0.2 μM, 72 h, no wilforlide A pretreatment, Table 25) of 92.8%. The viability at 0.2 µM (Lapatinib 0.2 μM, 72 h, no wilforlide A pretreatment, Table 27) was 94%, the “mean A” value [2] was 0.994 and the viability at 0.2 µM [2] was 86.6%. The “A at 565 nm” value (Lapatinib 0.2 μM, 72 h, pretreated with 25 μg/ml wilforlide A for 2 h, Table 26, background = 0.047) was 0.963, the viability at 0.67 µM (Lapatinib 0.67 μM, 72 h, no wilforlide A pretreatment, Table 25) was 87% and the “mean A” value [3] was 0.994. For the same molecule, the viability at 0.67 µM [3] was 85%, the “A at 565 nm” value (Lapatinib 0.67 μM, 72 h, no wilforlide A pretreatment, Table 27, background = 0.047) was 0.955 and the “mean A” value [4] was 0.872. For the same molecule, the viability at 0.67 µM [4] was 76%, the “A at 565 nm” value (Lapatinib 0.67 μM, 72 h, pretreated with 25 μg/ml wilforlide A for 2 h, Table 26, background = 0.047) was 0.813 and 0.937 and 0.865 and the “mean A” value [5] was 0.987. For the same molecule, the viability at 2 µM [5] was 79.1%, the “A at 565 nm” value (Lapatinib 2.0 μM, 72 h, no wilforlide A pretreatment, Table 25, background = 0.045) was 0.951 and the “mean A” value [6] was 0.831. For the same molecule, the viability at 2 µM [6] was 71%, the “A at 565 nm” value (Lapatinib 2.0 μM, 72 h, no wilforlide A pretreatment, Table 27, background = 0.047) was 0.887 and 0.809 and 0.797 and the “mean A” value [7] was 0.832. The viability at 2 µM [7] was 72.5%, the “A at 565 nm” value (Lapatinib 2.0 μM, 72 h, pretreated with 25 μg/ml wilforlide A for 2 h, Table 26, background = 0.047) was 0.876 and 0.831 and 0.789 and the “mean A” value [8] was 0.925. The viability at 6.7 µM [8] was 74.2%, the “A at 565 nm” value (Lapatinib 6.7 μM, 72 h, no wilforlide A pretreatment, Table 25, background = 0.045) was 0.926 and 0.823 and the “mean A” value [9] was 0.795. The viability at 6.7 µM [9] was 68%, the “A at 565 nm” value (Lapatinib 6.7 μM, 72 h, no wilforlide A pretreatment, Table 27, background = 0.047) was 0.866 and 0.798 and 0.722 and the “mean A” value [10] was 0.729. For the same molecule, the viability at 6.7 µM [10] was 63.5%, the “A at 565 nm” value (Lapatinib 6.7 μM, 72 h, pretreated with 25 μg/ml wilforlide A for 2 h, Table 26, background = 0.047) was 0.663 and 0.737 and 0.787 and the “mean A” value [11] was 0.876. For the same molecule, the viability at 20 µM [11] was 70.2%, the “A at 565 nm” value (Lapatinib 20 μM, 72 h, no wilforlide A pretreatment, Table 25, background = 0.045) was 0.911 and 0.914 and 0.803 and the “mean A” value [12] was 0.746. The viability at 20 µM [12] was 63.8%, the “A at 565 nm” value (Lapatinib 20 μM, 72 h, no wilforlide A pretreatment, Table 27, background = 0.047) was 0.807 and 0.697 and 0.735 and the “mean A” value [13] was 0.587. For the same molecule, the viability at 20 µM [13] was 51.2% and the “A at 565 nm” value (Lapatinib 20 μM, 72 h, pretreated with 25 μg/ml wilforlide A for 2 h, Table 26, background = 0.047) was 0.530 and 0.655 and 0.577.
